These results are taken from ChEMBL document CHEMBL1821633, “Norcantharimide analogues possessing terminal phosphate esters and their anti-cancer activity” (2011).

Common to all, as to format: functional
One test has as its system A-431. In words: Antiproliferative activity against human A431 cells after 72 hrs by MTT assay. As to conditions: A-431, 72 h.
The subject of the next test is HT-29. In words: Antiproliferative activity against human HT-29 cells after 72 hrs by MTT assay. The following applies: HT-29, 72 h.
For the next test, the system named is NCI-H460. In words: Antiproliferative activity against human H460 cells after 72 hrs by MTT assay. As to conditions: NCI-H460, 72 h.
Test [1] in a line: Antiproliferative activity against human BE(2)-C cells after 72 hrs by MTT assay.
The test system of the next test is A2780. In words: Antiproliferative activity against human A2780 cells after 72 hrs by MTT assay. The following applies: A2780, 72 h.
Test [2] can be described thus: Antiproliferative activity against human SJ-G2 cells after 72 hrs by MTT assay. As to conditions: SJ-G2, 72 h.
A further test has as its system SW480. The experiment in a line: Antiproliferative activity against human SW480 cells after 72 hrs by MTT assay. As to conditions: SW480, 72 h.
A further test has as its system MCF7. In words: Antiproliferative activity against human MCF7 cells after 72 hrs by MTT assay. The following applies: MCF7, 72 h.
The subject of another test is DU-145. In words: Antiproliferative activity against human DU145 cells after 72 hrs by MTT assay. As to conditions: DU-145, 72 h.

Take `CCOP(=O)(OCC)OCCCCCN1C(=O)[C@@H]2[C@H](C1=O)[C@H]1CC[C@@H]2O1`: the GI50 (in the test on A-431; with HT-29; with NCI-H460; in test [1]; in the test on A2780; in test [2]) was over 100 µM throughout. Moreover, the GI50 in the test with SW480, in the test with MCF7 and in the test with DU-145 was over 100 µM each time.

On to `O=C1[C@@H]2[C@H](C(=O)N1CCCOP(=O)(Oc1ccccc1)Oc1ccccc1)[C@H]1CC[C@@H]2O1`, for which the 50% growth inhibitory concentration (GI50) (with A-431; in the test on HT-29; in the test on NCI-H460; in [1]; in the test on A2780; in test [2]) was over 100 µM each time. The GI50 with SW480, in the test on MCF7 and with DU-145 was over 100 µM each time.

On to `O=C1[C@@H]2[C@H](C(=O)N1CCCCCCOP(=O)(Oc1ccccc1)Oc1ccccc1)[C@H]1CC[C@@H]2O1`, for which the GI50 in the test on A-431 was determined as 13 µM; in the test on HT-29, 5.4 µM; in the test with NCI-H460, 25 µM; in test [1] it was 14 µM; with A2780, 11 µM; in test [2], 14 µM. Further, the GI50 in the test with SW480 is 14 µM; with MCF7 it was 9.1 µM; in the test on DU-145, 7 µM.

On to `O=C1[C@@H]2[C@H](C(=O)N1CCCCOP(=O)(OCC(Cl)(Cl)Cl)OCC(Cl)(Cl)Cl)[C@H]1CC[C@@H]2O1`, for which the concentration for 50% growth inhibition (GI50) came to 31 µM with A-431; 16 µM with HT-29; 56 µM with NCI-H460; 40 µM in [1]; 26 µM in the test with A2780; 48 µM in [2]. Further, the values for the 50% growth inhibitory concentration (GI50) in the test on SW480, in the test on MCF7 and in the test on DU-145 were 32 µM, 28 µM and 49 µM, respectively.

Consider `O=C1[C@@H]2[C@H](C(=O)N1CCCCCOP(=O)(OCC(Cl)(Cl)Cl)OCC(Cl)(Cl)Cl)[C@H]1CC[C@@H]2O1`, for which the concentration for 50% growth inhibition (GI50) in the test with A-431 is 18 µM; with HT-29 it was 15 µM; in the test with NCI-H460, 29 µM; in test [1], 22 µM; with A2780 it was 16 µM; in test [2], 19 µM. Further, the concentration for 50% growth inhibition (GI50) was determined as 17 µM with SW480, 16 µM in the test on MCF7 and 26 µM with DU-145.

In the case of `O=C1c2ccccc2C(=O)N1CCCOP(=O)(Oc1ccccc1)Oc1ccccc1`, the GI50 (in the test on A-431; in the test with HT-29; in the test on NCI-H460; in test [1]; in the test with A2780; in test [2]) was over 100 µM each time. Moreover, the 50% growth inhibitory concentration (GI50) in the test on SW480, with MCF7 and in the test on DU-145 was over 100 µM in each case.

On to `O=C1[C@@H]2[C@H](C(=O)N1CCCCCOP(=O)(Oc1ccccc1)Oc1ccccc1)[C@H]1CC[C@@H]2O1`, for which the 50% growth inhibitory concentration (GI50) was 45 µM with A-431; 42 µM in the test on HT-29; 63 µM with NCI-H460; 56 µM in test [1]; 46 µM in the test on A2780; 50 µM in [2]. Moreover, the concentration for 50% growth inhibition (GI50) in the test on SW480 stood at 50 µM; in the test with MCF7, 31 µM; with DU-145 it was 52 µM.

Regarding `O=C1OC(=O)C2C3CCC(O3)C12` (stereo not drawn) [DEMETHYL-CANTHARIDIN], the concentration for 50% growth inhibition (GI50) with A-431 turned out to be 31 µM; in the test with HT-29 it was 57 µM; in the test with NCI-H460, 45 µM; in test [1], 43 µM; in the test with A2780, 38 µM; in [2], 23 µM. The GI50 was determined as 44 µM in the test on SW480, 68 µM in the test with MCF7 and 28 µM in the test on DU-145.

As to `CCOP(=O)(OCC)OCCN1C(=O)[C@@H]2[C@H](C1=O)[C@H]1CC[C@@H]2O1`, the GI50 in the test on A-431 was determined as 27 µM; in the test with HT-29 it was 33 µM; in the test with NCI-H460 it was 49 µM; with A2780, 15 µM; in test [2] it was 43 µM; in the test with SW480 it was 18 µM. In addition, the GI50 in the test with MCF7 came to 28 µM; with DU-145 it was 21 µM.

As for `CCOP(=O)(OCC)O[C@H]1CCCC[C@@H]1N1C(=O)[C@@H]2[C@H](C1=O)[C@H]1CC[C@@H]2O1`, the GI50 was determined as 47 µM in the test with A-431; 57 µM in the test on HT-29; 89 µM with NCI-H460; 31 µM in [1]; 22 µM with A2780; 60 µM in [2]. The GI50 in the test with SW480 turned out to be 33 µM; in the test with MCF7, 50 µM; with DU-145, 36 µM.

`O=C1[C@@H]2[C@H](C(=O)N1CCCOP(=O)(OCC(Cl)(Cl)Cl)OCC(Cl)(Cl)Cl)[C@H]1CC[C@@H]2O1`: the 50% growth inhibitory concentration (GI50) came out at 80 µM in the test on A-431; 57 µM in the test on HT-29; 78 µM in the test on NCI-H460; 50 µM in test [1]; 47 µM with A2780; 58 µM in test [2]. Also, the GI50 was 72 µM in the test on SW480, 60 µM in the test with MCF7 and over 100 µM in the test with DU-145.

`O=C1[C@@H]2[C@H](C(=O)N1CCCCCCOP(=O)(OCC(Cl)(Cl)Cl)OCC(Cl)(Cl)Cl)[C@H]1CC[C@@H]2O1`: the GI50 in the test with A-431 stood at 12 µM; in the test on HT-29, 11 µM; in the test on NCI-H460, 13 µM; in test [1] it was 9.3 µM; in the test with A2780, 7.7 µM; in test [2] it was 14 µM. In addition, the 50% growth inhibitory concentration (GI50) in the test on SW480 was 10 µM; in the test on MCF7, 12 µM; in the test with DU-145, 13 µM.

`O=C1[C@@H]2[C@H](C(=O)N1CCOP(=O)(Oc1ccccc1)Oc1ccccc1)[C@H]1CC[C@@H]2O1`: the GI50 (in the test on A-431; in the test with HT-29; in the test on NCI-H460; in [1]; with A2780; in test [2]) was over 100 µM throughout. In addition, the GI50 with SW480, with MCF7 and in the test on DU-145 was over 100 µM each time.

In the case of `CCOP(=O)(OCC)OCCCCCCN1C(=O)[C@@H]2[C@H](C1=O)[C@H]1CC[C@@H]2O1`, the GI50 (in the test on A-431; in the test with HT-29; in the test on NCI-H460; in test [1]; in the test on A2780; in [2]) was over 100 µM throughout. Further, the 50% growth inhibitory concentration (GI50) in the test on SW480, with MCF7 and in the test on DU-145 was over 100 µM in each case.

`O=C1[C@@H]2[C@H](C(=O)N1CCO)[C@H]1CC[C@@H]2O1`: the GI50 (in the test with A-431; in the test on HT-29; in the test on NCI-H460; in test [1]; in the test on A2780; in [2]) was over 100 µM throughout. Moreover, the GI50 with SW480, with MCF7 and in the test on DU-145 was over 100 µM each time.

For the compound `O=C1[C@@H]2[C@H](C(=O)N1[C@H]1CCCC[C@@H]1OP(=O)(OCC(Cl)(Cl)Cl)OCC(Cl)(Cl)Cl)[C@H]1CC[C@@H]2O1`, the GI50 in the test with A-431 is 48 µM; in the test on HT-29, 56 µM; in the test with NCI-H460 it was over 100 µM; in [1], 51 µM; in the test on A2780 it was 39 µM; in test [2], 45 µM. The results for the GI50 with SW480, in the test on MCF7 and in the test with DU-145 were 69 µM, 54 µM and 69 µM, respectively.

With `O=C1[C@@H]2[C@H](C(=O)N1CCCCCCO)[C@H]1CC[C@@H]2O1`, the 50% growth inhibitory concentration (GI50) (in the test on A-431; in the test with HT-29; in the test on NCI-H460; in test [1]; in the test on A2780; in [2]) was over 100 µM throughout. Besides, the 50% growth inhibitory concentration (GI50) in the test on SW480, in the test with MCF7 and with DU-145 was over 100 µM each time.

For the compound `O=C1[C@@H]2[C@H](C(=O)N1CCCCOP(=O)(Oc1ccccc1)Oc1ccccc1)[C@H]1CC[C@@H]2O1`, the 50% growth inhibitory concentration (GI50) in the test on A-431 is 21 µM; in the test on HT-29, 14 µM; with NCI-H460, 64 µM; in test [1] it was 25 µM; in the test on A2780, 17 µM; in test [2], 17 µM. In addition, the results for the 50% growth inhibitory concentration (GI50) in the test on SW480, in the test on MCF7 and in the test with DU-145 were 28 µM, 19 µM and 13 µM, respectively.

Take `O=C1[C@@H]2[C@H](C(=O)N1CCOP(=O)(OCC(Cl)(Cl)Cl)OCC(Cl)(Cl)Cl)[C@H]1CC[C@@H]2O1`: the GI50 (in the test on A-431; in the test with HT-29; with NCI-H460; in test [1]; in the test with A2780; in [2]) was over 100 µM each time. The 50% growth inhibitory concentration (GI50) in the test with SW480, in the test on MCF7 and with DU-145 was over 100 µM each time.

With `O=C1[C@@H]2[C@H](C(=O)N1[C@H]1CCCC[C@@H]1OP(=O)(Oc1ccccc1)Oc1ccccc1)[C@H]1CC[C@@H]2O1`, the GI50 in the test with A-431 turned out to be 26 µM; in the test with HT-29 it was 11 µM; in the test on NCI-H460, 48 µM; in test [1] it was 28 µM; in the test on A2780, 24 µM; in [2] it was 31 µM. Further, the figures for the GI50 in the test on SW480, in the test on MCF7 and with DU-145 were 26 µM, 14 µM and 35 µM, respectively.

Take `CCOP(=O)(OCC)OCCCCN1C(=O)[C@@H]2[C@H](C1=O)[C@H]1CC[C@@H]2O1`: the concentration for 50% growth inhibition (GI50) (with A-431; with HT-29; in the test with NCI-H460; in test [1]; in the test on A2780; in test [2]) was over 100 µM each time. Besides, the GI50 in the test on SW480, in the test with MCF7 and in the test on DU-145 was over 100 µM each time.
